Experiments:
OVCAR-4 = OVCAR-4 (Ovarian Cancer), 48 hours, SRB
HCC-2998 = HCC-2998 (Colon Cancer), 48 hours, SRB
CCRF-CEM = CCRF-CEM (Leukemia), 48 hours, SRB
SK-MEL-28 [1] = details: SK-MEL-28 (Melanoma), 48 hours, SRB
KM12 = experiment: cells; details: Homo sapiens, KM12, 48 h; for CC50: read-out: LC50
SF-268 = SF-268 (CNS Cancer), 48 hours, SRB
SN12C = SN12C (Renal Cancer), 48 hours, SRB
ACHN = ACHN (Renal Cancer), 48 hours, SRB
MALME-3M = MALME-3M (Melanoma), 48 hours, SRB
K-562 = K-562 (Leukemia), 48 hours, SRB
UO-31 = UO-31 (Renal Cancer), 48 hours, SRB
SK-MEL-28 [2] = experiment: cells; details: Homo sapiens, SK-MEL-28, 48 h; for CC50: read-out: LC50
MOLT-4 = experiment: cells; details: Homo sapiens, MOLT-4, 48 h; for CC50: read-out: LC50
SNB-75 = SNB-75 (CNS Cancer), 48 hours, SRB
OVCAR-5 = OVCAR-5 (Ovarian Cancer), 48 hours, SRB
RPMI-8226 = RPMI-8226 (Leukemia), 48 hours, SRB
786-0 = experiment: cells; details: Homo sapiens, 786-0, 48 h; for CC50: read-out: LC50
SF-295 = SF-295 (CNS Cancer), 48 hours, SRB
SW-620 = SW-620 (Colon Cancer), 48 hours, SRB
TK-10 = TK-10 (Renal Cancer), 48 hours, SRB
SK-MEL-5 = SK-MEL-5 (Melanoma), 48 hours, SRB
UACC-257 = experiment: cells; details: Homo sapiens, UACC-257, 48 h; for CC50: read-out: LC50
HS578T = HS578T (Breast Cancer), 48 hours, SRB
SR = SR (Leukemia), 48 hours, SRB
HL-60(TB) = experiment: cells; details: Homo sapiens, HL-60, 48 h; for CC50: read-out: LC50
MDA-MB-435 = MDA-MB-435 (Breast Cancer), 48 hours, SRB
T-47D = T-47D (Breast Cancer), 48 hours, SRB
NCI-H23 = NCI-H23 (Non-Small Cell Lung Cancer), 48 hours, SRB
HOP-62 = HOP-62 (Non-Small Cell Lung Cancer), 48 hours, SRB
DU-145 = DU-145 (Prostate Cancer), 48 hours, SRB
LOX IMVI = LOX IMVI (Melanoma), 48 hours, SRB
PC-3 = PC-3 (Prostate Cancer), 48 hours, SRB

Structure (SMILES) | TGI (OVCAR-4) [nM] | TGI (HCC-2998) [nM] | TGI (CCRF-CEM) [nM] | TGI (SK-MEL-28 [1]) [nM] | GI50 (KM12) [nM] | CC50 (KM12) [nM] | TGI (SF-268) [nM] | TGI (SN12C) [nM] | TGI (ACHN) [nM] | TGI (MALME-3M) [nM] | TGI (K-562) [nM] | TGI (UO-31) [nM] | GI50 (SK-MEL-28 [2]) [nM] | CC50 (SK-MEL-28 [2]) [nM] | GI50 (MOLT-4) [nM] | CC50 (MOLT-4) [nM] | TGI (SNB-75) [nM] | TGI (OVCAR-5) [nM] | TGI (RPMI-8226) [nM] | GI50 (786-0) [nM] | other results
Cc1cc(C)cc(-c2ccc3c(c2)[N+]([O-])=C2C3=C[C@@]34NC(=O)C5(CCCN5C3=O)CC4C2(C)C)c1 (stereo partly drawn) [Biphenyl Analogue] | 1720 | 1060 | 421 | 1080 | 257 | 3910 | 767 | 614 | 618 | 244 | 358 | 731 | 252 | 3770 | 159 | 79100 | 757 | 1700 | 48.6 | 192 | CC50 (786-0): 825 nM; TGI (SF-295): 1540 nM; TGI (SW-620): 349 nM; TGI (TK-10): 955 nM; TGI (SK-MEL-5): 324 nM; GI50 (UACC-257): 272 nM; CC50 (UACC-257): 3740 nM; TGI (HS578T): 18900 nM; TGI (SR): 407 nM; GI50 (HL-60(TB)): 131 nM; CC50 (HL-60(TB)): 64300 nM; TGI (MDA-MB-435): 440 nM; TGI (T-47D): 330 nM; TGI (NCI-H23): 840 nM; TGI (HOP-62): 3320 nM; TGI (DU-145): 813 nM; TGI (LOX IMVI): 273 nM
[2H]On1c2c(c3ccc4c(c31)C=CC(C)(C)O4)C(OC([2H])([2H])[2H])[C@@]13NC(=O)C4(CCCN4C1=O)CC3C2(C)C (stereo partly drawn) [Deuterated Methanol Adduct] | 1630 | 2010 | 704 | 1820 | 1270 | 5020 | 3010 | 2320 | 2530 | 1560 | 3070 | 1840 | 457 | 4370 | 229 | 8560 | 1270 | 1910 | 298 | 1200 | CC50 (786-0): 5020 nM; TGI (SF-295): 2730 nM; TGI (SW-620): 1540 nM; TGI (TK-10): 2350 nM; TGI (PC-3): 2020 nM; TGI (SK-MEL-5): 2710 nM; GI50 (UACC-257): 587 nM; CC50 (UACC-257): 4450 nM; TGI (HS578T): 2170 nM; TGI (SR): 1250 nM; GI50 (HL-60(TB)): 298 nM; CC50 (HL-60(TB)): 9370 nM; TGI (MDA-MB-435): 1770 nM; TGI (T-47D): 1380 nM; TGI (NCI-H23): 2430 nM; TGI (HOP-62): 7030 nM; TGI (DU-145): 3120 nM; TGI (LOX IMVI): 2140 nM

Source: patent US20110105515A1, “TARGETING THE ONCOPROTEIN NUCLEOPHOSMIN” (President and Fellows of Harvard College, priority 2007, published 2011)
